Reference: patent US12365655B2, “Compounds” (CTXT PTY LTD, priority 2018, dated 2025)

What was measured:
TIP60-KAT5 = TIP60-KAT5 (Homo sapiens, UniProt Q92993); experiment: Acetyltransferase biochemical assay (AlphaScreen), KAT5
HBO-KAT7 = HBO-KAT7 (Homo sapiens, UniProt O95251); experiment: Acetyltransferase biochemical assay (AlphaScreen), KAT7
MOZ-KAT6A = MOZ-KAT6A (Homo sapiens, UniProt Q92794, A567V); experiment: Acetyltransferase biochemical assay (AlphaScreen), KAT6A
Sequence of MOZ-KAT6A (Q92794 with tags, fused parts or gaps A567V): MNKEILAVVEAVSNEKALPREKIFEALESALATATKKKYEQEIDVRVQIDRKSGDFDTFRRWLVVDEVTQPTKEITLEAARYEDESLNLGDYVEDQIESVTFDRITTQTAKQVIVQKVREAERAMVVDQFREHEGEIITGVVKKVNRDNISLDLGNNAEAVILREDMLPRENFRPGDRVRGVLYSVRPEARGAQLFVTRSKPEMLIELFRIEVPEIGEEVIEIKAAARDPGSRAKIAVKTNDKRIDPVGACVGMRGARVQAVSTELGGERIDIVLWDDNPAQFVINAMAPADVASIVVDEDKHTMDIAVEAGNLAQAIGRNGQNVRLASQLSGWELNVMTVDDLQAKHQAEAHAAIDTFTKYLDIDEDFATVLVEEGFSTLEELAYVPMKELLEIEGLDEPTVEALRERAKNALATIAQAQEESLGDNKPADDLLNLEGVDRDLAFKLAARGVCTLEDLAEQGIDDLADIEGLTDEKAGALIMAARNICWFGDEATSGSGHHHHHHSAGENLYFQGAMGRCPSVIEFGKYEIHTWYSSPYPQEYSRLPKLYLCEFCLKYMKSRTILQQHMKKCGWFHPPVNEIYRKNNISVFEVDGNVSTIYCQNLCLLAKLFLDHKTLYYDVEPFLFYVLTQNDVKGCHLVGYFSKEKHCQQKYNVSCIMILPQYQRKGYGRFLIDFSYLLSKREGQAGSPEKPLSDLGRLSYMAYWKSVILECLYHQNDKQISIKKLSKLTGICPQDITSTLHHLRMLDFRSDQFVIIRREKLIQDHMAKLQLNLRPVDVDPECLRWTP

Sequence of HBO-KAT7 (O95251 with tags, fused parts or gaps): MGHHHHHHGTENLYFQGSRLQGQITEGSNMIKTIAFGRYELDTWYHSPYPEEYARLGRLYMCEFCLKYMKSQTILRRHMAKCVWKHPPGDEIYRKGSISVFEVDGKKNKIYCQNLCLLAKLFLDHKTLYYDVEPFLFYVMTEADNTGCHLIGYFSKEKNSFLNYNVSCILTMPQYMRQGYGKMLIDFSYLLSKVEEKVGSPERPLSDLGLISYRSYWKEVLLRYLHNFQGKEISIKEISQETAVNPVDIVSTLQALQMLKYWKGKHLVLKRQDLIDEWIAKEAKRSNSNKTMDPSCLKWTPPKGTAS
Sequence of TIP60-KAT5 (Q92993 with tags, fused parts or gaps isoform Q92993-2): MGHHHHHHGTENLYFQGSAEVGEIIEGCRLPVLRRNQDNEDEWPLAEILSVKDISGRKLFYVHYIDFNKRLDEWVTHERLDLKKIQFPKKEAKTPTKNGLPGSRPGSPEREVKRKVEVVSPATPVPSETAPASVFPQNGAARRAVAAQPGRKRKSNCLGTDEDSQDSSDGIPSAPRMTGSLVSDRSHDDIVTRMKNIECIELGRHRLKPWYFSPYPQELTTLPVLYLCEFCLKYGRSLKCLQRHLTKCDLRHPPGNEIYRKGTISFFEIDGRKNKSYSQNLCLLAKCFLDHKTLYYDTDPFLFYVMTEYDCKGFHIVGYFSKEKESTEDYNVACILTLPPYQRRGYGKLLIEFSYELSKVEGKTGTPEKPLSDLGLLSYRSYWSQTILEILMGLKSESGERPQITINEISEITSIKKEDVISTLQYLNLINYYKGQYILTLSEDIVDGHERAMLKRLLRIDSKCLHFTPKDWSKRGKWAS

Row | Compound | IC50 (TIP60-KAT5) [µM] | IC50 (HBO-KAT7) [µM] | IC50 (MOZ-KAT6A) [µM]
1 | O=S(=O)(Nc1noc2cccc(Cl)c12)c1cc(Br)cc2c1OCC2 [Example 127, 5-bromo-N-(4-chlorobenzo[d]isoxazol-3-yl)-2,3-dihydrobenzofuran-7-sulfonamide] | 49.7 | 9.49 | 9.16
2 | O=S(=O)(Nc1noc2cccc(Cl)c12)c1cccc2c1OCCO2 [Example 39, N-(4-chlorobenzo [d]isoxazol-3-yl)-2,3-dihydrobenzo[b][1,4]dioxine-5-sulfonamide] | > 125 | 10.1 | 38.2
3 | COc1ccc(-c2cc(OC)c3c(NS(=O)(=O)c4c(OC)cccc4OC)noc3c2)cn1 [Example 247, 2,6-Dimethoxy-N-(4-methoxy-6-(6-methoxypyridin-3-yl)benzo[d]isoxazol-3-yl)benzenesulfonamide] | 96.6 | 5.9 | 3.48
4 | CCc1ccc(OC)c(S(=O)(=O)Nc2noc3cccc(C4CC4)c23)c1 [Example 200] | 4.73 | 0.678 | 0.364
5 | COc1ccc(C(C)C)cc1S(=O)(=O)Nc1noc2ccccc12 [Example 49, N-(benzo[d]isoxazol-3-yl)-5-isopropyl-2-methoxy benzene sulfonamide] | 74.6 | 77.8 | 8.13
6 | COc1ccc(F)cc1S(=O)(=O)Nc1noc2cccc(Cl)c12 [Example 5, N-(4-chlorobenzo [d]isoxazol-3-yl)-5-fluoro-2-methoxybenzene sulfonamide] | 114 | 6.01 | 31.3
7 | O=S(=O)(Nc1noc2cccc(Cl)c12)c1cccc(S(F)(F)(F)(F)F)c1 [Example 36, N-(4-chlorobenzo [d]isoxazol-3-yl)-3-(pentafluoro-λ^6-sulfanyl)benzene sulfonamide] | 39 | 26.3 | 17.7
8 | CCc1ccc(OC)c(S(=O)(=O)Nc2noc3cc(-n4cccn4)ccc23)c1 [Example 131] | 69.7 | 23.8 | 3.11
9 | COc1cccc2onc(NS(=O)(=O)c3ccc4c(c3)CCCC4)c12 [Example 84, N-(4-methoxybenzo[d]isoxazol-3-yl)-5,6,7,8-tetrahydro-naphthalene-2-sulfonamide] | 50.5 | 20 | 18.7
10 | CCc1ccc(OC)c(S(=O)(=O)Nc2noc3ccc(C(=O)NC)cc23)c1 [Example 230, 3-((5-Ethyl-2-methoxyphenyl)sulfonamido)-N-methylbenzo[d]isoxazole-5-carboxamide] | > 125 | 109 | 48.1
11 | COCc1ccccc1S(=O)(=O)Nc1noc2cccc(OC)c12 [Example 88, N-(4-methoxybenzo[d]isoxazol-3-yl)-2-(methoxymethyl)benzene-sulfonamide] | > 125 | 7.51 | 41.2
12 | O=S(=O)(Nc1noc2ccccc12)c1ccc(-c2ccccc2)cc1 [Example 69, N-(benzo[d]isoxazol-3-yl)-[1,1-biphenyl]-4-sulfonamide] | 124 | 94.1 | 42.9
13 | CCc1ccc(OC)c(S(=O)(=O)Nc2noc3c(-c4ncccn4)cccc23)c1 [Example 136, 5-Ethyl-2-methoxy-N-(7-(pyrimidin-2-yl)benzo[d]isoxazol-3-yl)benzenesulfonamide] | > 125 | 28.3 | 34.3
14 | O=S(=O)(Nc1noc2ccccc12)c1ccc(Br)cn1 [Example 68, N-(benzo[d]isoxazol- -3-yl)-5-bromopyridine-2-sulfonamide] | > 125 | > 125 | 85.1
15 | CCc1ccc(OC)c(S(=O)(=O)Nc2noc3cccc(C(F)(F)F)c23)c1 [Example 121, 5-Ethyl-2-methoxy-N-(4-(trifluoromethyl)benzo[d]isoxazol-3-yl)benzenesulfonamide] | 29 | 5.21 | 1.24
16 | CCc1ccc(OC)c(S(=O)(=O)Nc2noc3ccc(-c4cnn(C)c4)cc23)c1 [Example 237, 5-Ethyl-2-methoxy-N-(5-(1-methyl-1H-pyrazol-4-yl)benzo[d]isoxazol-3-yl)benzenesulfonamide] | > 125 | 18 | 4.95
17 | O=S(=O)(Nc1noc2cccc(Cl)c12)c1ccc(OC(F)(F)F)cc1 [Example 23, N-(4-chlorobenzo [d]isoxazol-3-yl)-4-(trifluoromethoxy) benzenesulfonamide] | 72.9 | 23.9 | 21.8
18 | O=S(=O)(Nc1noc2ccccc12)c1cccc(-c2ccccc2)c1 [Example 70, N-(benzo[d]isoxazol-3-yl)-[1,1-biphenyl]-3-sulfonamide] | 36.8 | 32 | 31.3
19 | COc1cc2c(c(OC)c1S(=O)(=O)Nc1noc3cccc(OC)c13)CCC2 [Example 106, 4,6-Dimethoxy-N-(4-methoxybenzo[d]isoxazol-3-yl)-2,3-dihydro-1H-indene-5-sulfonamide] | 14.3 | 3.98 | 0.782
20 | COc1ccc(C(F)(F)F)c(OC)c1S(=O)(=O)Nc1noc2cccc(OC)c12 [Example 101, 2,6-Dimethoxy-N-(4-methoxybenzo[d]isoxazol-3-yl)-3-(trifluoromethyl)benzenesulfonamide] | 98.2 | 32.8 | 3.8

Row | Compound | IC50 (TIP60-KAT5) [µM] | IC50 (HBO-KAT7) [µM] | IC50 (MOZ-KAT6A) [µM]
21 | COc1cc(OC)c(S(=O)(=O)Nc2noc3cccc(OC)c23)c(OC)c1 [Example 85, 2,4,6-trimethoxy-N-(4-methoxybenzo[d]isoxazol-3-yl)benzene sulfonamide] | 28.5 | 1.77 | 3.87
22 | CCc1ccc(OC)c(S(=O)(=O)Nc2noc3ccc(C#N)cc23)c1 [Example 233] | > 125 | 17.9 | 9.95
23 | O=S(=O)(Nc1noc2cccc(Cl)c12)c1cccc2nsnc12 [Example 7, N-(4-chlorobenzo [d]isoxazol-3-yl)benzo[c][1,2,5]thiadiazole-4-sulfonamide] | > 125 | 14.2 | 62.7
24 | COc1cccc(OC(C)C)c1S(=O)(=O)Nc1noc2cccc(OC)c12 [Example 217, 2-Isopropoxy-6-methoxy-N-(4-methoxybenzo[d]isoxazol-3-yl)benzenesulfonamide] | > 125 | 18.4 | 10.2
25 | COc1cccc(OCc2ccccc2)c1S(=O)(=O)Nc1noc2cccc(OC)c12 [Example 222, 2-(Benzyloxy)-6-methoxy-N-(4-methoxybenzo[d]isoxazol-3-yl)benzenesulfonamide] | 26.8 | 1.42 | 0.655
26 | COc1cccc(OC)c1S(=O)(=O)Nc1noc2cc(C)cc(OC)c12 [Example 244, 2,6-Dimethoxy-N-(4-methoxy-6-methylbenzo[d]isoxazol-3-yl)benzenesulfonamide] | 30.2 | 1.11 | 2.13
27 | CCc1ccc(OC)c(S(=O)(=O)Nc2noc3ccc(C)c(Cl)c23)c1 [Example 153] | 4.05 | 0.507 | 0.437
28 | COc1cc(C)c(C)cc1S(=O)(=O)Nc1noc2cccc(Cl)c12 [Example 33, N-(4-chlorobenzo [d]isoxazol-3-yl)-2-methoxy-4,5-dimethylbenzenesulfonamide] | 90.5 | 11.4 | 6.85
29 | CCc1ccc(OC)c(S(=O)(=O)Nc2noc3ccc(-c4cncnc4)cc23)c1 [Example 238, 5-Ethyl-2-methoxy-N-(5-(pyrimidin-5-yl)benzo[d]isoxazol-3-yl)benzenesulfonamide] | > 125 | 94.2 | 12
30 | CCc1ccc(OC)c(S(=O)(=O)Nc2noc3c(-c4cncnc4)cccc23)c1 [Example 192, 5-Ethyl-2-methoxy-N-(7-(pyrimidin-5-yl)benzo[d]isoxazol-3-yl)benzenesulfonamide] | 29.9 | 24.2 | 9.39
31 | O=S(=O)(Nc1noc2cccc(Cl)c12)c1cccc2ccncc12 [Example 159, N-(4-chlorobenzo[d]isoxazol-3-yl)isoquinoline-8-sulfonamide] | > 125 | 37.6 | 66.6
32 | CCc1ccc(OC)c(S(=O)(=O)Nc2noc3cccc(C4CCCCC4)c23)c1 [Example 201] | 21.8 | 0.773 | 1.48
33 | COc1cccc(OCCO)c1S(=O)(=O)Nc1noc2cccc(OC)c12 [Example 220, 2-(2-Hydroxyethoxy)-6-methoxy-N-(4-methoxybenzo[d]isoxazol-3-yl)benzenesulfonamide] | > 125 | 11 | 3.5
34 | O=S(=O)(Nc1noc2ccccc12)c1ccc(C2CCCCC2)cc1 [Example 71, N-(benzo[d]isoxazol-3-yl)-4-cyclohexyl benzene-sulfonamide] | 28.4 | 21.6 | 11.6
35 | O=S(=O)(Nc1noc2cccc(Cl)c12)c1cccc2ccccc12 [Example 124, N-(4-Chlorobenzo[d]isoxazol-3-yl)naphthalene-1-sulfonamide] | 27.9 | 13 | 11
36 | CCc1ccc(OC)c(S(=O)(=O)Nc2noc3cccc(-c4cnn(C)c4)c23)c1 [Example 202, 5-Ethyl-2-methoxy-N-(4-(1-methyl-1H-pyrazol-4-yl)benzo[d]isoxazol-3-yl)benzenesulfonamide] | 111 | 54.4 | 18.9
37 | CCc1ccc(OC)c(S(=O)(=O)Nc2noc3c(C4CCCCC4)cccc23)c1 [Example 190] | 19.9 | 18.5 | 9.73
38 | COc1cccc(O)c1S(=O)(=O)Nc1noc2cccc(OC)c12 [Example 213, 2-Hydroxy-6-methoxy-N-(4-methoxybenzo[d]isoxazol-3-yl)benzenesulfonamide] | > 125 | 20.5 | 8.28
39 | CCc1ccc(OC)c(S(=O)(=O)Nc2noc3cccc(Br)c23)c1 [Example 129] | 18.5 | 1.32 | 0.772
